The target of one series is T1, M3 muscarinic receptor (Rattus norvegicus, UniProt P08483).
T1 construct: Submandibular glands and heart were isolated and placed in ice cold homogenising buffer; from tissue; host or cells: rat submandibular gland membrane homogenate
In words: Radioligand binding assay, [3H]-N-methylscopolamine, rat submandibular gland membranes. Conditions: [3H]-NMS binding, Ki by Cheng & Prusoff; for Ki: read-out: M3 pki. The method, then:
(§1) Radioligand Binding Assays: • The affinity of test compounds for M2 and M3 muscarinic receptor subtypes was determined by [^3H]-N-methylscopolamine binding studies using rat heart and submandibular gland respectively as described by Moriya et al., (Life Sci, 1999, 64(25):2351-2358) with minor modifications. Membrane preparation: Submandibular glands and heart were isolated and placed in ice cold homogenising buffer (HEPES 20 mM, 10 mM EDTA, pH 7.4) immediately after sacrifice. The tissues were homogenised in 10 volumes of homogenising buffer and the homogenate was filtered through two layers of wet gauze and filtrate was centrifuged at 500 g for 10 min. The supernatant was subsequently centrifuged at 40,000 g for 20 min. The pellet thus obtained was resuspended in same volume of assay buffer (HEPES 20 mM, EDTA 5 mM, pH 7.4) and were stored at −70° C. until the time of assay. Ligand binding assay: The compounds were dissolved and diluted in DMSO. The membrane homogenates (150-250 μg protein) were incubated in 250 μl of assay buffer (HEPES 20 mM, pH 7.4) at 24-25° C. for 3 h. Non-specific binding was determined in the presence of 1 μM atropine. The incubation was terminated by vacuum filtration over GF/B fiber filters(Wallac). The filters were then washed with ice cold 50 mM Tris HCl buffer (pH 7.4). The filter mats were dried and bound radioactivity retained on filters was counted. The IC50 & Kd were estimated by using the non-linear curve fitting program using G Pad Prism software. The value of inhibition constant Ki was calculated from competitive binding studies by using Cheng & Prusoff equation (Biochem Pharmacol, 1973, 22: 3099-3108), Ki=IC50/(1+L/Kd), where L is the concentration of [^3H]NMS used in the particular experiment. pki is—[log Ki].

Another series has as its target T2, M2 muscarinic receptor (Rattus norvegicus, UniProt P10980).
T2 construct: Submandibular glands and heart were isolated and placed in ice cold homogenising buffer; from tissue; host or cells: rat heart membrane homogenate
T2 sequence (P10980 1-466): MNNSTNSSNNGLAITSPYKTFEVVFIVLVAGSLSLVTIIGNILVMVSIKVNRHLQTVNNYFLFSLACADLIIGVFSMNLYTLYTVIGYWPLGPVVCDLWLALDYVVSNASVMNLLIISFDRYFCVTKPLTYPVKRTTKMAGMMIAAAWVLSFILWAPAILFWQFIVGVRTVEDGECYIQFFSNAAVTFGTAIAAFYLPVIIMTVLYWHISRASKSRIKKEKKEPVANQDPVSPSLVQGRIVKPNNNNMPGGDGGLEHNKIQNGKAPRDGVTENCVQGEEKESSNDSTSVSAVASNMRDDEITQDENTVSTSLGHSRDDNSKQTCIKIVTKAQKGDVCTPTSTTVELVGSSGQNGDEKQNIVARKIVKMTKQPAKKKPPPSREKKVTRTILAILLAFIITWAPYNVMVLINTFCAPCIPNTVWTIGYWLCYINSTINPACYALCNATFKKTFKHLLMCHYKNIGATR
In words: Radioligand binding assay, [3H]-N-methylscopolamine, rat heart membranes. The conditions noted are these: [3H]-NMS binding, Ki by Cheng & Prusoff; for Ki: read-out: M2 pki. The method, then:
as §1

A value given as a limit tells only on which side of the number the result lay.

T1 sequence (P08483 whole entry): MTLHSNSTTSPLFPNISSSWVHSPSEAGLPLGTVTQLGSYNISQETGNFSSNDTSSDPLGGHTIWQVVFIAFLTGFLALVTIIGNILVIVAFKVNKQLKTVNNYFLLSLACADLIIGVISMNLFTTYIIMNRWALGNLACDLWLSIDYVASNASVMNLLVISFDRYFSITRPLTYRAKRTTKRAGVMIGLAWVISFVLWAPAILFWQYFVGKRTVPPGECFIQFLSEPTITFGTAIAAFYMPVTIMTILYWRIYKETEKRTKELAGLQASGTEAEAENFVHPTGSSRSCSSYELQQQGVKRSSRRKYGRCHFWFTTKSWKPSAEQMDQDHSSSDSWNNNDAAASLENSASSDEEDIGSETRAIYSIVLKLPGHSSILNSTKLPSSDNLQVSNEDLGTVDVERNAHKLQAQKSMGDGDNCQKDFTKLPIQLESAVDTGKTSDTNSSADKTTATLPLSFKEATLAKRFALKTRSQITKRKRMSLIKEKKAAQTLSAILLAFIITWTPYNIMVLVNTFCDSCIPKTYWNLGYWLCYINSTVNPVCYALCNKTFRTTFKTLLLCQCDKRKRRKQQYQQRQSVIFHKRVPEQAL

Broadly, the melting point is the temperature, or range, at which the solid turns liquid. `Cc1c(-c2ccccc2)oc2c(C(=O)N[C@H]3[C@@H]4CN(Cc5ccccc5)C[C@@H]43)cccc2c1=O` [Compound No. 1, (1α,5α,6α)-6N-[3-benzyl-3-azabicyclo[3.1.0]hexyl]-3methyl-4-oxo-2-phenyl-4H-1-benzopyran-8-carboxamide]: the melting point fell in the range of 182 to 184 °C. Further, the Ki at M3 muscarinic receptor was over 10 µM. Further, the Ki on M2 muscarinic receptor was over 10 µM.
In the case of `Cc1c(-c2ccccc2)oc2c(C(=O)NCC34CC3CN(Cc3ccccc3)C4)cccc2c1=O` (centres unmarked) [Compound No. 5, N-[3-benzyl-3-azabicyclo[3.1.0]hexyl-1-(aminomethyl)-yl]-3-methyl-4-oxo-2-phenyl-4H-1-benzopyran-8-carboxamide], the Ki at M3 muscarinic receptor and on M2 muscarinic receptor was over 1 µM each time.
`Cc1c(-c2ccccc2)oc2c(C(=O)NCC3C4CN(Cc5ccccc5)CC34)cccc2c1=O` (stereo not drawn) [Compound No. 3, (1α,5α,6α)-N-[3-benzyl-3-azabicyclo[3.1.0]hexyl-6-(aminomethyl)-yl]-3-methyl-4-oxo-2-phenyl-4H-1-benzopyran-8-carboxamide]: the M3 pki at M3 muscarinic receptor came to 5.1. In addition, on M2 muscarinic receptor, the M2 pki is on record as under 5.3.
As to `Cc1c(-c2ccccc2)oc2c(C(=O)N[C@H]3[C@@H]4CN(Cc5ccc(C#N)cc5)C[C@@H]43)cccc2c1=O` [Compound No. 2, (1α,5α,6α)-6N-[3-(4-cyanobenzyl)-3-azabicyclo[3.1.0]hexyl]-3-methyl-4-oxo-2-phenyl-4H-1-benzopyran-8-carboxamide], the Ki at M3 muscarinic receptor and on M2 muscarinic receptor was over 10 µM throughout.
In the case of “(1α,5α,6α)-N-[3-[4-methyl-3-pentenyl]-3-azabicylo[3.1.0]hexyl-6-(aminomethyl)-3-methyl-4-oxo-2-phenyl-4H-1-benzo-pyran-8-carboxamide [Compound No. 4]”, on M3 muscarinic receptor, the M3 pki is on record as under 6. The M2 pki at M2 muscarinic receptor is listed as under 6.
